According to patent US20220313774A1, “INTRANASAL ADMINISTRATION OF MEROTOCIN FOR IMPROVING LACTATION” (FERRING B.V., priority 2019, published 2022):
Where two headings read alike, the source gives them in different places. *1 amine or outer side, *2 acyl side, *3 side chain or, on linkers, in order; H or OH if unused. Where a SMILES comes first, the peptide text is derived from it. Bridges are numbered along the chain shown (N, C = ends). [ ]: non-standard residue; d: D form. N(4-F-Bzl)Gly = O=C(O)CNCc1ccc(F)cc1; X1 = O=C(CCC[*:2])[*:1]

Key:
[1] = Trial 000015 Part 2: pharmacokinetics after multiple intranasal administrations; type: in vivo, human; details: for Cmax / Tmax / AUC(0-t) / half-life: female, human, plasma
Text: The trial was divided into three parts:
Part 2. Ascending multiple i.n. doses.

early postpartum women = details: in vivo
Protocol: Healthy women received 5 or 20 μg merotocin i.v. shortly after delivery (Part A) or 20 μg merotocin i.v. when lactation was established (Part B). Milk was expressed by pumping at 15 minutes, 3 hours, 6 hours, 9 hours, 12 hours, 18 hours and 18-24 hours after start of infusion and analysed for merotocin and metabolites.

[2] = in vivo
healthy women [3] = details: in vivo
Protocol: The first clinical trial in human, Trial 000015, was a double-blind, placebo-controlled, single dose, within dose panel randomised, sequential dose escalating study. The trial was divided into three parts:
Part 1. Ascending single i.n. doses. There were 7 dose panels with 8 healthy women in each dose panel (6 active, 2 placebo). The doses investigated were 5 μg, 15 μg, 50 μg, 100 μg, 200 μg, 300 μg, and 400 μg.
Seven dose levels were investigated: 5, 15, 50, 100, 200, 300, and 400 μg. Each of the doses were administered as a nasal spray based on one or multiple puffs per nostril.
Part 3. Open-label cross-over single i.n. and single i.v. dose in 6 healthy women. The doses investigated were 20 μg as an i.v. infusion over 25 minutes, and 400 μg as a single i.n. dose.
The intranasal dose was 400 μg (4×140 μl, the same as the highest dose in Part 1), the i.v. dose was 20 μg infused in 2 mL over 25 minutes.

healthy women [4] = tested on: healthy women;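 on headache: subjects reporting: adverse events in healthy women given intranasal doses every 3 h over 45 h (16 doses per panel), each panel with 6 active and 2 placebo subjects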;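 on intensity of all TEAEs: adverse events in healthy women given intranasal doses every 3 h over 45 h (16 doses per panel), each panel with 6 active and 2 placebo subjects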;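 on withdrawal due to nausea: adverse events in healthy women given intranasal doses every 3 h over 45 h (16 doses per panel), each panel with 6 active and 2 placebo subjects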
Protocol: Part 2. Ascending multiple i.n. doses. There were 3 dose panels with 8 healthy women in each dose panel (6 active, 2 placebo). The dosing schedule was every 3 hours for 45 hours, i.e. 16 doses in all. The doses investigated were 50 μg, 200 μg, and 400 μg.
Three dose levels were investigated: the first dose was 50 μg, the second dose was 200 μg (intermediate between the first dose and the maximal tolerated dose in Part 1), and the highest dose was 400 μg (the maximal dose in Part 1).

[5] = 16 i.n. administrations over 48 hours

CC[C@H](C)[C@@H]1NC(=O)[C@H](Cc2ccc(O)cc2)NC(=O)CCCSC[C@@H](C(=O)N(CC(=O)N[C@@H](CC(C)C)C(=O)NCC(N)=O)Cc2ccc(F)cc2)NC(=O)[C@H](CC(N)=O)NC(=O)[C@H](CCC(N)=O)NC1=O [merotocin, Glycinamide, N-(4-mercapto-1-oxobutyl)-L-tyrosyl-L-isoleucyl-Lglutaminyl-L-asparaginyl-L-cysteinyl-N-[(4-fluorophenyl)methyl]glycyl-L-leucyl-, cyclic (1→5)-thioether] (YIQNC[N(4-F-Bzl)Gly]LG-NH2; linker N-5 via X1)
accumulation [1, 5]: no indications of relevant accumulation
pre-dose concentrations [1, 5]: falling constantly below the LLOQ
Cmax ([1]; inhaled or intranasal, 50 ug, multiple i.n. doses every 3 hours, 50 μg, Dose No. 1, read-out: Cmax Geom. mean (% CV)): 0.0275 ng/mL
Cmax ([1]; inhaled or intranasal, 50 ug, multiple i.n. doses every 3 hours, 50 μg, Dose No. 1, read-out: Cmax Median): 0.0307 ng/mL
Tmax ([1]; inhaled or intranasal, 50 ug, multiple i.n. doses every 3 hours, 50 μg, Dose No. 1, read-out: tmax Mean (SD)): 13.8 min
Cmax ([1]; inhaled or intranasal, 50 ug, multiple i.n. doses every 3 hours, 50 μg, Dose No. 2, read-out: Cmax Median): 0.0302 ng/mL
Cmax ([1]; inhaled or intranasal, 50 ug, multiple i.n. doses every 3 hours, 50 μg, Dose No. 16, read-out: Cmax Median): 0.0266 ng/mL
Tmax ([1]; inhaled or intranasal, 50 ug, multiple i.n. doses every 3 hours, 50 μg, Dose No. 16, read-out: tmax Mean (SD)): 20.4 min
AUC(0-t) ([1]; inhaled or intranasal, 200 ug, multiple i.n. doses every 3 hours, 200 μg, Dose No. 1, read-out: AUCt Geom. mean (% CV)): 0.0804 ng·h/mL
AUC(0-t) ([1]; inhaled or intranasal, 200 ug, multiple i.n. doses every 3 hours, 200 μg, Dose No. 1, read-out: AUCt Median): 0.0876 ng·h/mL
Cmax ([1]; inhaled or intranasal, 200 ug, multiple i.n. doses every 3 hours, 200 μg, Dose No. 1, read-out: Cmax Geom. mean (% CV)): 0.124 ng/mL
Cmax ([1]; inhaled or intranasal, 200 ug, multiple i.n. doses every 3 hours, 200 μg, Dose No. 1, read-out: Cmax Median): 0.125 ng/mL
Tmax ([1]; inhaled or intranasal, 200 ug, multiple i.n. doses every 3 hours, 200 μg, Dose No. 1, read-out: tmax Mean (SD)): 10.8 min
AUC(0-t) ([1]; inhaled or intranasal, 200 ug, multiple i.n. doses every 3 hours, 200 μg, Dose No. 2, read-out: AUCt Geom. mean (% CV)): 0.0752 ng·h/mL
AUC(0-t) ([1]; inhaled or intranasal, 200 ug, multiple i.n. doses every 3 hours, 200 μg, Dose No. 2, read-out: AUCt Median): 0.0706 ng·h/mL
Cmax ([1]; inhaled or intranasal, 200 ug, multiple i.n. doses every 3 hours, 200 μg, Dose No. 2, read-out: Cmax Geom. mean (% CV)): 0.115 ng/mL
Cmax ([1]; inhaled or intranasal, 200 ug, multiple i.n. doses every 3 hours, 200 μg, Dose No. 2, read-out: Cmax Median): 0.118 ng/mL
half-life ([1]; inhaled or intranasal, 200 ug, multiple i.n. doses every 3 hours, 200 μg, Dose No. 2, read-out: t1/2 Harmonic mean (converted)): 26.4 min
Tmax ([1]; inhaled or intranasal, 200 ug, multiple i.n. doses every 3 hours, 200 μg, Dose No. 2, read-out: tmax Mean (SD)): 16.8 min
AUC(0-t) ([1]; inhaled or intranasal, 200 ug, multiple i.n. doses every 3 hours, 200 μg, Dose No. 16, read-out: AUCt Geom. mean (% CV)): 0.16 ng·h/mL
AUC(0-t) ([1]; inhaled or intranasal, 200 ug, multiple i.n. doses every 3 hours, 200 μg, Dose No. 16, read-out: AUCt Median): 0.147 ng·h/mL
Cmax ([1]; inhaled or intranasal, 200 ug, multiple i.n. doses every 3 hours, 200 μg, Dose No. 16, read-out: Cmax Geom. mean (% CV)): 0.218 ng/mL
Cmax ([1]; inhaled or intranasal, 200 ug, multiple i.n. doses every 3 hours, 200 μg, Dose No. 16, read-out: Cmax Median): 0.225 ng/mL
half-life ([1]; inhaled or intranasal, 200 ug, multiple i.n. doses every 3 hours, 200 μg, Dose No. 16, read-out: t1/2 Harmonic mean (converted)): 30.6 min
Tmax ([1]; inhaled or intranasal, 200 ug, multiple i.n. doses every 3 hours, 200 μg, Dose No. 16, read-out: tmax Mean (SD)): 18.6 min
AUC(0-t) ([1]; inhaled or intranasal, 400 ug, multiple i.n. doses every 3 hours, 400 μg, Dose No. 1, read-out: AUCt Geom. mean (% CV)): 0.0771 ng·h/mL
AUC(0-t) ([1]; inhaled or intranasal, 400 ug, multiple i.n. doses every 3 hours, 400 μg, Dose No. 1, read-out: AUCt Median): 0.0702 ng·h/mL
Cmax ([1]; inhaled or intranasal, 400 ug, multiple i.n. doses every 3 hours, 400 μg, Dose No. 1, read-out: Cmax Geom. mean (% CV)): 0.156 ng/mL
Cmax ([1]; inhaled or intranasal, 400 ug, multiple i.n. doses every 3 hours, 400 μg, Dose No. 1, read-out: Cmax Median): 0.136 ng/mL
half-life ([1]; inhaled or intranasal, 400 ug, multiple i.n. doses every 3 hours, 400 μg, Dose No. 1, read-out: t1/2 Harmonic mean (converted)): 21 min
AUC(0-t) ([1]; inhaled or intranasal, 400 ug, multiple i.n. doses every 3 hours, 400 μg, Dose No. 2, read-out: AUCt Geom. mean (% CV)): 0.0888 ng·h/mL
AUC(0-t) ([1]; inhaled or intranasal, 400 ug, multiple i.n. doses every 3 hours, 400 μg, Dose No. 2, read-out: AUCt Median): 0.142 ng·h/mL
Cmax ([1]; inhaled or intranasal, 400 ug, multiple i.n. doses every 3 hours, 400 μg, Dose No. 2, read-out: Cmax Geom. mean (% CV)): 0.169 ng/mL
Cmax ([1]; inhaled or intranasal, 400 ug, multiple i.n. doses every 3 hours, 400 μg, Dose No. 2, read-out: Cmax Median): 0.195 ng/mL
half-life ([1]; inhaled or intranasal, 400 ug, multiple i.n. doses every 3 hours, 400 μg, Dose No. 2, read-out: t1/2 Harmonic mean (converted)): 23.4 min
Tmax ([1]; inhaled or intranasal, 400 ug, multiple i.n. doses every 3 hours, 400 μg, Dose No. 2, read-out: tmax Mean (SD)): 9.6 min
Cmax ([1]; inhaled or intranasal, 400 ug, multiple i.n. doses every 3 hours, 400 μg, Dose No. 16, read-out: Cmax Geom. mean (% CV)): 0.18 ng/mL
Cmax ([1]; inhaled or intranasal, 400 ug, multiple i.n. doses every 3 hours, 400 μg, Dose No. 16, read-out: Cmax Median): 0.192 ng/mL
half-life ([1]; inhaled or intranasal, 400 ug, multiple i.n. doses every 3 hours, 400 μg, Dose No. 16, read-out: t1/2 Median (converted)): 39 min
Tmax ([1]; inhaled or intranasal, 400 ug, multiple i.n. doses every 3 hours, 400 μg, Dose No. 16, read-out: tmax Mean (SD)): 18 min
Tmax ([1]; other: intranasal, 50 ug, multiple i.n. doses every 3 hours, 50 μg, Dose No. 2, read-out: tmax Mean (SD)): 20.4 min
Cmax ([1]; other: intranasal, 50 ug, multiple i.n. doses every 3 hours, 50 μg, Dose No. 16, read-out: Cmax Geom. mean (% CV)): 0.0236 ng/mL
Tmax ([1]; other: intranasal, 400 ug, multiple i.n. doses every 3 hours, 400 μg, Dose No. 1, read-out: tmax Mean (SD)): 6.6 min
AUC(0-t) ([1]; other: intranasal, 400 ug, multiple i.n. doses every 3 hours, 400 μg, Dose No. 16, read-out: AUCt Geom. mean (% CV)): 0.112 ng·h/mL
AUC(0-t) ([1]; other: intranasal, 400 ug, multiple i.n. doses every 3 hours, 400 μg, Dose No. 16, read-out: AUCt Median): 0.112 ng·h/mL
half-life ([1]; other: intranasal, 400 ug, multiple i.n. doses every 3 hours, 400 μg, Dose No. 16, read-out: t1/2 Harmonic mean (converted)): 33.6 min
half-life ([1]; other: intranasal, multiple i.n. doses, all dose groups, read-out: t1/2): 25 to 35 min
Tmax ([1]; other: intranasal, multiple i.n. doses, all dose groups, read-out: tmax): 12 to 15 min
Any AE: number of AEs, E (early postpartum women): 16
Any AE: subjects with AE, n (%) (early postpartum women): 8 (44)
Back pain: number of AEs, E (early postpartum women): 1
Back pain: subjects with AE, n (%) (early postpartum women): 1 (6)
Breast engorgement: number of AEs, E (early postpartum women): 3
Breast engorgement: subjects with AE, n (%) (early postpartum women): 3 (17)
Headache: number of AEs, E (early postpartum women): 3
Headache: subjects with AE, n (%) (early postpartum women): 2 (11)
Lactation puerperal increased: number of AEs, E (early postpartum women): 1
Lactation puerperal increased: subjects with AE, n (%) (early postpartum women): 1 (6)
Muscle spasms: number of AEs, E (early postpartum women): 1
Muscle spasms: subjects with AE, n (%) (early postpartum women): 1 (6)
Uterine spasm: number of AEs, E (early postpartum women): 7
Uterine spasm: subjects with AE, n (%) (early postpartum women): 6 (33)
safety (key results) (early postpartum women): No safety
severe or serious AE (early postpartum women; iv): No severe or serious AE occurred
metabolites of merotocin in plasma or urine samples [2]: No metabolites of merotocin could be detected
Dry mouth: subjects reporting (healthy women [3]): 3 subjects
intensity of all adverse events (healthy women [3]): mild
safety (key results) (healthy women [3]): No safety
withdrawal due to nausea (healthy women [4]; 400 μg group, multiple doses): One subject was withdrawn
dry mouth: subjects reporting (healthy women [4]; 200 and 400 μg groups, multiple doses): 5 subjects
intensity of all TEAEs (healthy women [4]; after multiple dose administrations): mild
headache: subjects reporting (healthy women [4]; all treatment groups, multiple doses): 4 subjects
